Assay results: patent US7387788B1 (priority 2003, dated 2008)

Key:
[1] = in an alcohol/water solvent; cited from earlier work
[2] = In vitro skin permeation, Franz cells, finite dose, non-occlusive, pig ear skin; conditions: topical or ocular, 10 mg, pH 7.4
Method: A finite dose (for example: 4-7 mg/cm^2) of formulation is applied to the outer surface of the skin and drug absorption is measured by monitoring its rate of appearance in the receptor solution bathing the inner surface of the skin. Data defining total absorption, rate of absorption, as well as skin content can be accurately determined in this model.
Pig skin can be prepared essentially as described below for human skin.
Prior to the experiment, skin was removed from the bag, placed in water (approximately 37° C.) for five minutes, and then cut into sections large enough to fit on 1 cm^2 Franz Cells (Crown Glass Co., Somerville, N.J.). Briefly, skin samples were prepared as follows. A small volume of phosphate buffered saline (PBS) was used to cover the bottom of the Petri dishes. Skin disks generally depleted of fat layers were placed in the Petri dishes for hydration. A Stadie-Riggs manual tissue microtome was used for slicing excised skin samples. Approximately 2 mL of PBS was placed into the middle cavity of the microtome as slicing lubricant. Skin disks were placed, dermal side up, into the middle cavity of the microtome. Filter paper was soaked with PBS, inserted in the cavity just above the skin disk. The filter paper prevented the dermis from sliding onto the top of the cutting block and helped to insure more precise cutting. […]

[3] = cited from earlier work
[4] = In vitro skin permeation, Franz cells, frozen human abdominal skin; format: in vitro ADME; conditions: Example 7
Method: Percutaneous absorption was measured using the in vitro cadaver skin finite dose technique. Cryo-preserved, human cadaver trunk skin was obtained from a skin bank and stored in water-impermeable plastic bags at <−70° C. until used.
Briefly, skin samples were prepared as follows.
The dermal cell was filled with receptor solution.
Experiments were performed under non-occlusive conditions.
Analysis of the samples was performed by HPLC.
Twenty-five micro liters of sample were injected.
Formulations 7.1 and 7.3 were made essentially as described above in the Materials and Methods. Formulation 7.1 and 7.2 are identical, but formulation 7.1 was tested on pig ear skin, and formulation 7.2 was tested on frozen human abdominal skin. Formulation 7.3 (Reference marketed product) was also tested on frozen human abdominal skin. Permeation studies used Franz cells as described in the Materials and Methods.
Individual gel amounts applied to tested skin samples were approximately 10 mg. Studies were performed according to OECD (Organization for Economic Cooperation and Development) guidelines (Organization for Economic Co-operation and Development (OECD), Environment Directorate. “Guidance document for the conduct of skin absorption studies,” OECD series on testing and assessment, No. 28. Paris, version 5 Mar. 2004).

[5] = oral administration; cited from earlier work

Row | SMILES | apparent pKa of nicotine [1] | bioavailability at 16 h, 1.5 % FBE [2] [%] | Oral bioavailability [3] | change of transdermal in vitro bioavailability, frozen human skin versus fresh pig skin ([4]; p=0.009) [%] | bioavailability at 16 h, 1.5 % FBE ([4]; topical or ocular, 10 mg, pH 7.4, frozen human skin, gel of Table 13 (formulation 7.2)) [%] | fraction of the drug absorbed when administered orally [5]
1 | CN1CCC[C@H]1c1cccnc1 [nicotine, 1-methyl-2-(3-pyridyl)pyrrolidone] | 7.7 | 38 | about 30% | −52 | 18 | 
2 | NCCCC(O)(P(=O)(O)O)P(=O)(O)O [sodium alendronate] |  |  |  |  |  | about 0.6%
